Test results published in BindingDB's records for patent US11759530 (City of Hope, 2023).

Columns and labels:
Assay in all cases: No assay
[1] = target: Mitogen-activated protein kinase 11 (Homo sapiens, UniProt Q15759)
[2] = target: Mitogen-activated protein kinase 14 (Homo sapiens, UniProt Q16539)
PIM2 = PIM2 (Homo sapiens, UniProt Q9P1W9)
Chain of PIM2 (Q9P1W9 whole entry): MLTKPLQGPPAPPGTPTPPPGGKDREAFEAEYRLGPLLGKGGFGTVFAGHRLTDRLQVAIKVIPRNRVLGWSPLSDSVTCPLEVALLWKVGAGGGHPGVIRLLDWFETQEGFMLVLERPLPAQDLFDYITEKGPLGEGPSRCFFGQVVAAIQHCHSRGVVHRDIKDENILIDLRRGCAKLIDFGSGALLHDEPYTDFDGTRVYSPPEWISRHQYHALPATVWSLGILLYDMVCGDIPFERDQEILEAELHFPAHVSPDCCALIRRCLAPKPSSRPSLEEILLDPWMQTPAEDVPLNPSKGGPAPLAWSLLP

Chain of Mitogen-activated protein kinase 14 (Q16539 whole entry): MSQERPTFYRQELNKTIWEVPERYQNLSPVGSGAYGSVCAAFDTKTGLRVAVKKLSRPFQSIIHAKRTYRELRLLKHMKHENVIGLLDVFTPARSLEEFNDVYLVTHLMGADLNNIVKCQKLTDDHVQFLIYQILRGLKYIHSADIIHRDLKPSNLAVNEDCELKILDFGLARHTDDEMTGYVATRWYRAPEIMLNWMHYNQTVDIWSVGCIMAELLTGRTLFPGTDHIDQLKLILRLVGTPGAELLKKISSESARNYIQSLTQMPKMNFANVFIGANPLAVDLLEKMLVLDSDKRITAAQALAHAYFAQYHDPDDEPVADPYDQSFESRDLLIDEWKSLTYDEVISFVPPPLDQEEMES
Chain of Mitogen-activated protein kinase 11 (Q15759 whole entry): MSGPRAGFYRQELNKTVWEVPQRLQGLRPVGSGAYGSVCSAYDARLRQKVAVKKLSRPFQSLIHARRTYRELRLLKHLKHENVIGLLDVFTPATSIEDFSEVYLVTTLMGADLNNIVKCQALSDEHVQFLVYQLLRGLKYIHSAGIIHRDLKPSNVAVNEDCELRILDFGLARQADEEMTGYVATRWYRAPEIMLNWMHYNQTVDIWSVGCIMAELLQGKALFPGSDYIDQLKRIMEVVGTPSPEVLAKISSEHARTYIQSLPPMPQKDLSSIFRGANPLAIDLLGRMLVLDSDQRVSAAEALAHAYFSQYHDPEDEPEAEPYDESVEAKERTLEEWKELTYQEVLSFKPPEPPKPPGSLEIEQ

**Q.** For O=S(=O)(c1c(O)c(Cl)cc(Cl)c1Cl)c1c(O)c(Cl)cc(Cl)c1Cl [HL-7], which IC50 [1] is on record?
**A.** 0.55 µM

**Q.** And the IC50 [2]?
**A.** 0.13 µM

**Q.** Which IC50 [2] does the source give for NC(=O)c1ccc(-c2nc(-c3ccc4c(c3)OCCO4)c(-c3ccccn3)[nH]2)cc1 [US11759530, Compound Table1.3] here?
**A.** 12000 µM

**Q.** Which IC50 (PIM2) does the source give for O=c1c(O)c(-c2ccc(O)c(O)c2)oc2cc(O)c(O)c(O)c12 [US11759530, Compound Table1.8] here?
**A.** 3.45 µM
